Measured values taken from patent US12168781B2, “Production method for T cells or NK cells, medium for culturing T cells or NK cells, method for culturing T cells or NK cells, method for maintaining undifferentiated state of undifferentiated T cells, and growth-accelerating agent for T cells or NK cells” (KIRIN HOLDINGS KABUSHIKI KAISHA, priority 2018, dated 2024).

What was measured:
[1] = system: CD8beta(+)CD8alpha(+) T cells; assay: Long-term culturing of T cells obtained by feeder-free differentiation induction, trypan blue count; type: cell-based, human; details: 1 μM, FIG. 14(B)
Description: The possibility of long-term culturing of T-iPS-T cells using berbamine was evaluated. First, T cells were induced from T-iPS cells without using a feeder. For the maintenance of iPS cells, StemFit AK02N medium (Ajinomo) was used for feeder-free iPS cells. The iPS cells were detached from the culture surface coated with iMatrix-511 using a dissociation agent [1× TrypLE Select (Thermo Fisher Scientific) was diluted to 1/2 with PBS, and a 0.5 mol/L EDTA solution (pH 8, Nacalai Tesque) was added thereto to give a final concentration of 0.5× TrypLE Select and 0.75 mM EDTA], and subcultured in a culture medium obtained by adding 10 μM Y-27632 to StemFit AK02N (37° C., 5% CO2). On the following day, the culture medium was replaced with Stemfit AK02N. This operation was repeated once a week to maintain the iPS cells.
Hematopoietic progenitor cells (HPCs) were produced by inducing the differentiation of iPS cells by an embryoid body formation method. The feeder-free iPS cells were detached with 0.5× TrypLE Select, and 0.75 mM EDTA, and then seeded at 2 to 3×10^5 cells/well in a 6-well plate (CORNING) subjected to an ultra-low adhesion treatment. By using Stemfit AK02N medium supplemented with 10 μM Y-27632 (Nacalai Tesque) and 10 μM CHIR99021 (Tocris Bioscience), the cells were cultured under low oxygen conditions (5% 02) (Day 0). […]

naive T cells = assay: Proliferation of sorted naive T cells, trypan blue count; type: cell-based, human; details: 1 μM, naive T cells, 6, 9, 12 and 14 days, FIG. 18C
Source text: NPL 4 reports that hierarchy exists in T cells (FIG. 18A). In this Example, a fraction in which berbamine acts in T cells was verified. As a method therefor, PBMCs (CTL, Inc.) derived from a healthy subject was washed with a staining solution (PBS containing 2% FBS), and then stained with CCR7-APC (BioLegend, 353214), CD45RA-BV510 (BioLegend, 304142), CD45RO-APC-Cy7 (BioLegend, 307228), CD95-PC-Cy7 (BioLegend, 305622), CD8β-PE (Beckman, IM2217U), and CD4-BV421 (BioLegend, 317434).
After washing, the cells were resuspended in the staining solution containing PI, and by using BD AriaII Cell Sorter (BD Bioscience), in the CD8β(+) cells, CCR7(+)CD45RA(+)CD95(−)CD45RO(−) was sorted as naive T cells, CCR7(+)CD45RA(+)CD95(+)CD45RO(+) was sorted as stem cell memory T cells, CCR7(+)CD45RA(−)CD45RO(+) was sorted as central memory T cells, and CCR7(−) CD45RA(−)CD45RO(+) was sorted as effector memory T cells.
The respective cells (about 3,000 cells/well) were seeded, and berbamine (BBM) at 1 μM or MilliQ water that is a solvent for the compound as a control was added thereto, and the cells were stimulated with CD3/CD28 Dynabeads (about 9,000 beads/well). The cells were cultured using the same culture medium as in Example 6.
After 6, 9, 12, and 14 days of culturing, the number of viable cells was counted by a trypan blue method. In a statistical analysis, a Student's t-test was used (*: p<0.05).

With `COc1cc2c3cc1Oc1c(OC)c(OC)cc4c1[C@@H](Cc1ccc(O)c(c1)Oc1ccc(cc1)C[C@@H]3N(C)CC2)N(C)CC4` [berbamine] as the compound, how does the “period for which the cells could be cultured” value ([1]; restimulated on day 14, 28, 42, MilliQ water control could not be cultured after day 42) read?
Its value is 56 days.

And the “proliferation of the cells in long-term culturing” value ([1]; vs MilliQ water)?
Its value is “enhancement of the proliferation of T-iPS-T cells”.

And the “number of viable cells compared with MilliQ water” value (naive T cells)?
The value was “significant enhancement of cell proliferation”.
